We go through 23 compounds from patent publication US20220135591A1, “HETEROCYCLIC COMPOUNDS AS INHIBITORS OF MONOACYLGLYCEROL LIPASE (MAGL)” (Hoffmann-La Roche Inc., priority 2019, published 2022).

One assay has as its target T1, MAGL (recombinant wild-type) (Homo sapiens, UniProt Q99685).
T1 sequence (Q99685 1-303): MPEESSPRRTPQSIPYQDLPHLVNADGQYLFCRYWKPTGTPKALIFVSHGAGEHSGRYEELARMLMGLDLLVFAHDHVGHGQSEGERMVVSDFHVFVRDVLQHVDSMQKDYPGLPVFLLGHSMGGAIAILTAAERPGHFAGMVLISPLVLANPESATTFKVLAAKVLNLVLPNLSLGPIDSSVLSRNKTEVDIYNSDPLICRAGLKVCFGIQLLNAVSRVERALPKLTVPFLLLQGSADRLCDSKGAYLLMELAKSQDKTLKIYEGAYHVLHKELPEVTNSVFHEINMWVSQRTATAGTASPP
As to the kind of experiment: 4-NPA assay: MAGL inhibitory activity by hydrolysis of 4-nitrophenylacetate, absorbance at 405 nm. It counts as biochemical. The following applies: 4-NPA assay (values without footnote [b]). As to the method: Compounds were profiled for MAGL inhibitory activity by measuring the enzymatic activity of MAGL by following the hydrolysis of 4-nitrophenylacetate resulting in 4-nitrophenol, which absorbs at 405-412 nm (G. G. Muccioli, G. Labar, D. M. Lambert, Chem. Bio. Chem. 2008, 9, 2704-2710). This assay is hereinafter abbreviated “4-NPA assay”.
The assay was carried out in 384 well assay plates (black with clear bottom, non-binding surface treated, Corning Ref. 3655) in a total volume of 40 μL. Compound dilutions were made in 100% DMSO (VWR Chemicals 23500.297) in a polypropylene plate in 3-fold dilution steps to give a final concentration range in the assay from 25 μM to 1.7 nM. 1 μL compound dilutions (100% DMSO) were added to 19 μL MAGL (recombinant wild-type) in assay buffer (50 mM TRIS (GIBCO, 15567-027), 1 mM EDTA (Fluka, 03690-100 mL)). The plate was shaked for 1 min at 2000 rpm (Variomag Teleshake) and then incubated for 15 min at RT. To start the reaction, 20 μL 4-Nitrophenlyacetate (Sigma N-8130) in assay buffer with 6% EtOH was added. The final concentrations in the assay were 1 nM MAGL and 300 μM 4-Nitrophenylacetate. After shaking (1 min, 2000 rpm) and 5 min incubation at RT, the absorbance at 405 nm was measured for a first time (Molecular Devices, SpectraMax Paradigm). A second measurement was then done after incubation for 80 min at RT. From the two measurements, the slope was calculated by subtracting the first from the second measurement.
Consider `Cc1ccc2oc(N3CCN(C(=O)c4ccc5nc(-c6ccccc6)oc5c4)CC3)nc2n1` [Example 1, (4-(5-Methyloxazolo[4,5-b]pyridin-2-yl)piperazin-1-yl)(2-phenylbenzo[d]oxazol-6-yl)methanone], for which the half-maximal inhibitory concentration (IC50) – broadly, the concentration that gives 50% inhibition – is 0.115 µM. Same read-out and setting: the value for `O=C(c1ccc2nc(-c3ccccc3)oc2c1)N1CCN(c2nc3ncccc3o2)CC1` [Example 2, (4-(oxazolo[4,5-b]pyridin-2-yl)piperazin-1-yl)(2-phenylbenzo[d]oxazol-6-yl)methanone] was 0.194 µM; that for `Cc1ccc2oc(N3CCN(C(=O)c4ccc5nc(N6CCCC6)oc5c4)CC3)nc2n1` [Example 3, (4-(5-methyloxazolo[4,5-b]pyridin-2-yl)piperazin-1-yl)(2-(pyrrolidin-1-yl)benzo[d]oxazol-6-yl)methanone] was 2.33 µM. The same measure, in the same setting: the value for `Cc1ccc2oc(N3CCN(C(=O)c4ccc(-c5noc(C(C)(C)C)n5)cc4)CC3)nc2n1` [Example 4, (4-(5-(tert-butyl)-1,2,4-oxadiazol-3-yl)phenyl)(4-(5-methyloxazolo[4,5-b]pyridin-2-yl)piperazin-1-yl)methanone] was 0.027 µM; that for `Cc1ccc2oc(N3CCN(C(=O)c4ccc(-c5noc(CC(C)(C)C)n5)cc4)CC3)nc2n1` [Example 5, (4-(5-methyloxazolo[4,5-b]pyridin-2-yl)piperazin-1-yl)(4-(5-neopentyl-1,2,4-oxadiazol-3-yl)phenyl)methanone] was 0.009 µM. Still for that read-out and setting: the value for `Cc1ccc2oc(N3CCN(C(=O)c4ccc5nc(N6CC7(CCCC7)C6)oc5c4)CC3)nc2n1` [Example 6, (2-(2-azaspiro[3.4]octan-2-yl)benzo[d]oxazol-6-yl)(4-(5-methyloxazolo[4,5-b]pyridin-2-yl)piperazin-1-yl)methanone] was 0.025 µM. Take `Cc1ccc2oc(N3CCN(C(=O)c4ccc(-c5noc(C(C)(C)CO)n5)cc4)CC3)nc2n1` [Example 7, (4-(5-(1-hydroxy-2-methylpropan-2-yl)-1,2,4-oxadiazol-3-yl)phenyl)(4-(5-methyloxazolo[4,5-b]pyridin-2-yl)piperazin-1-yl)methanone]: the IC50 stood at 0.262 µM. Same read-out and setting: the value for `CC(C)(C)c1nc(-c2ccc(C(=O)N3CCN(c4nc5nccc(Cl)c5o4)CC3)cc2)no1` [Example 8, (4-(5-(tert-butyl)-1,2,4-oxadiazol-3-yl)phenyl)(4-(7-chlorooxazolo[4,5-b]pyridin-2-yl)piperazin-1-yl)methanone] was 0.247 µM; that for `CC(C)(C)Cc1nc(-c2ccc(C(=O)N3CCN(c4nc5nccc(Cl)c5o4)CC3)cc2)no1` [Example 9, (4-(7-chlorooxazolo[4,5-b]pyridin-2-yl)piperazin-1-yl)(4-(5-neopentyl-1,2,4-oxadiazol-3-yl)phenyl)methanone] was 0.027 µM; that for `CC(C)(C)Cc1nc(-c2ccc(C(=O)N3CCN(c4nc5nc(Cl)ccc5o4)CC3)cc2)no1` [Example 10, (4-(5-chlorooxazolo[4,5-b]pyridin-2-yl)piperazin-1-yl)(4-(5-neopentyl-1,2,4-oxadiazol-3-yl)phenyl)methanone] was 0.002 µM. The same measure, in the same setting: the value for `Cc1ccc2oc(N3CCN(C(=O)c4ccc(-c5noc(C(C)(C)CF)n5)cc4)CC3)nc2n1` [Example 11, (4-(5-(1-fluoro-2-methylpropan-2-yl)-1,2,4-oxadiazol-3-yl)phenyl)(4-(5-methyloxazolo[4,5-b]pyridin-2-yl)piperazin-1-yl)methanone] was 0.049 µM; that for `CC(C)(C)c1nc(-c2ccc(C(=O)N3CCN(c4nc5nc(Cl)ccc5o4)CC3)cc2)no1` [Example 12, (4-(5-(tert-butyl)-1,2,4-oxadiazol-3-yl)phenyl)(4-(5-chlorooxazolo[4,5-b]pyridin-2-yl)piperazin-1-yl)methanone] was 0.008 µM.

On to `CC(C)(C)Cc1nc(-c2ccc(C(=O)N3CCN(c4nc5ncccc5o4)CC3)cc2)no1` [Example 13, (4-(5-neopentyl-1,2,4-oxadiazol-3-yl)phenyl)(4-(oxazolo[4,5-b]pyridin-2-yl)piperazin-1-yl)methanone], for which the IC50 stood at 0.037 µM.

Turning to `CC(C)(C)c1nc(-c2ccc(C(=O)N3CCN(c4nc5ncccc5o4)CC3)cc2)no1` [Example 14, (4-(5-(tert-butyl)-1,2,4-oxadiazol-3-yl)phenyl)(4-(oxazolo[4,5-b]pyridin-2-yl)piperazin-1-yl)methanone], the half-maximal inhibitory concentration (IC50) stood at 0.128 µM.

The target of another assay is T2, MAGL (Homo sapiens, UniProt Q99685).
T2 sequence (Q99685 1-303): T1 sequence (Q99685 1-303)
As to the kind of experiment: 2-AG assay: MAGL inhibitory activity by hydrolysis of 2-arachidonoylglycerol to arachidonic acid, mass spectrometry. It counts as biochemical. The following applies: 2-AG assay (values marked [b]). In outline: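 Hydrolysis of 8 μM 2-arachidonoylglycerol by […] was run for 30 min at RT after a 15 min compound preincubation, in Tris/EDTA/Tween buffer. Test compounds spanned […]. The product was measured by online SPE-MS/MS (transitions 303.1→259.1 and 311.1→267.0), and activity was derived from the arachidonic acid/d8-arachidonic acid signal ratio.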
Turning to `Cc1cc(C(=O)N2CCN(c3nc4nc(Cl)ccc4o3)CC2)ccc1-c1nnn(CC(C)(C)C)n1` [Example 302, [4-(5-chlorooxazolo[4,5-b]pyridin-2-yl)piperazin-1-yl]-[4-[2-(2,2-dimethylpropyl)tetrazol-5-yl]-3-methyl-phenyl]methanone], the 50% inhibitory concentration (IC50) was 0.002 µM. The compound `Cc1ccc2oc(N3CCN(C(=O)c4ccc(-c5nnn(CC(C)(C)C)n5)c(F)c4)CC3)nc2n1` [Example 303, [4-[2-(2,2-dimethylpropyl)tetrazol-5-yl]-3-fluoro-phenyl]-[4-(5-methyloxazolo[4,5-b]pyridin-2-yl)piperazin-1-yl]methanone] displayed an IC50 of 0.007 µM. `CC(C)(C)Cn1nnc(-c2ccc(C(=O)N3CCN(c4nc5nc(Cl)ccc5o4)CC3)cc2F)n1` [Example 304, [4-(5-chlorooxazolo[4,5-b]pyridin-2-yl)piperazin-1-yl]-[4-[2-(2,2-dimethylpropyl)tetrazol-5-yl]-3-fluoro-phenyl]methanone]: half-maximal inhibition (IC50) required 0.004 µM. On the same count and under the same terms, the value for `CC(C)(C)Cn1nnc(-c2ncc(C(=O)N3CCN(c4nc5nc(Cl)ccc5o4)CC3)cc2F)n1` [Example 306, [4-(5-chlorooxazolo[4,5-b]pyridin-2-yl)piperazin-1-yl]-[6-[2-(2,2-dimethylpropyl)tetrazol-5-yl]-5-fluoro-3-pyridyl]methanone] was 0.363 µM; that for `Cc1ccc2oc(N3CCN(C(=O)c4cnc(-c5nnn(CC(C)(C)C)n5)c(F)c4)CC3)nc2n1` [Example 307, [6-[2-(2,2-dimethylpropyl)tetrazol-5-yl]-5-fluoro-3-pyridyl]-[4-(5-methyloxazolo[4,5-b]pyridin-2-yl)piperazin-1-yl]methanone] was 1.13 µM; that for `Cc1cc(C(=O)N2CCN(c3nc4nc(Cl)ccc4o3)CC2)cnc1-c1nnn(CC(C)(C)C)n1` [Example 308, [4-(5-chlorooxazolo[4,5-b]pyridin-2-yl)piperazin-1-yl]-[6-[2-(2,2-dimethylpropyl)tetrazol-5-yl]-5-methyl-3-pyridyl]methanone] was 0.111 µM. `Cc1ccc2oc(N3CCN(C(=O)c4cnc(-c5nnn(CC(C)(C)C)n5)c(C)c4)CC3)nc2n1` [Example 309, [6-[2-(2,2-dimethylpropyl)tetrazol-5-yl]-5-methyl-3-pyridyl]-[4-(5-methyloxazolo[4,5-b]pyridin-2-yl)piperazin-1-yl]methanone]: the IC50 is 0.051 µM.

Consider `COc1cc(C(=O)N2CCN(c3nc4nc(C)ccc4o3)CC2)cnc1-c1nnn(CC(C)(C)C)n1` [Example 310, [6-[2-(2,2-dimethylpropyl)tetrazol-5-yl]-5-methoxy-3-pyridyl]-[4-(5-methyloxazolo[4,5-b]pyridin-2-yl)piperazin-1-yl]methanone], for which the half-inhibitory concentration (IC50) came out at 0.167 µM. `COc1cc(C(=O)N2CCN(c3nc4nc(Cl)ccc4o3)CC2)cnc1-c1nnn(CC(C)(C)C)n1` [Example 311, [4-(5-chlorooxazolo[4,5-b]pyridin-2-yl)piperazin-1-yl]-[6-[2-(2,2-dimethylpropyl)tetrazol-5-yl]-5-methoxy-3-pyridyl]methanone] had an IC50 of 0.061 µM.
